Experimental data taken from patent US20100035943A1, “Oxa-and thiadiazoles and their use as metalloproteinase inhibitors” (VERNALIS (OXFORD) LTD, priority 2002, published 2010).

Columns and labels:
[1] = molecular target: 92 kDa gelatinase (MMP9) (Homo sapiens, UniProt P14780); assay: MMP9 enzyme inhibition assay (fluorogenic peptide substrate McaPLGLDpaAR); assay type: biochemical; details: recombinant human 92 kDa gelatinase, 37° C., 2 hours
Experimental: (§1) Compounds were tested for inhibitory activity against 92 kDa gelatinase (MMP9) in an assay using a coumarin-labelled peptide substrate, (7-methoxycoumarin-4-yl)acetyl-Pro-Leu-Gly-Leu-(3-[2,4-dinitrophenyl]-L-2,3-diaminopropionyl)-Ala-Arg-NH2 (McaPLGLDpaAR) (Knight et al, FEBS Lett. 1992; 263-266).
(§2) Stock solutions were made up as follows: • Assay Buffer: 100 mM Tris-HCl pH 7.6 containing 100 mM NaCl, 10 mM CaCl2, and 0.05% Brij 35 • Substrate: 0.4 mM McaPLGLDpaAR (from Bachem) (0.437 mg/ml) stock solution in 100% DMSO (stored at −20° C.). Dilute to 8 μM in assay buffer. • Enzyme: Recombinant human 92 kDa gelatinase (MMP-9; APMA (4-aminophenyl • mercuric acetate)—activated if necessary) appropriately diluted in assay buffer.
(§3) Test Compounds were prepared initially as 10 mM compound solution in 100% DMSO, diluted to 1 mM in 100% DMSO, then serially diluted 3-fold in 100% DMSO across columns 1-10 of a 96-well microtitre plate Assay concentration range, 100 μM (column 1) to 5.1 nM (column 10)
(§4) The assay was performed in a total volume of 100 μl per well in 96-well microtitre plates. Activated enzyme (20 μl) was added to the wells followed by 20 μl of assay buffer. Appropriate concentrations of test compounds dissolved in 10 μl of DMSO were then added followed by 50 μl of McaPLGLDpaAR (8 μM, prepared by dilution of DMSO stock in assay buffer). For each assay ten concentrations of test compound were examined in duplicate. Control wells lack either enzyme or test compound. The reactions were incubated at 37° C. for 2 hours. The fluorescence at 405 nm was measured immediately with an SLT Fluostar fluorometer (SLT Labinstruments GmbH, Grödig, Austria) using 320 nm excitation, without stopping the reaction.
(§5) The effect of the test compound was determined from the dose response curve generated by the 10 duplicate concentrations of inhibitor. The IC50 (the concentration of compound required to give a 50% decrease in enzyme activity) was obtained by fitting data to the equation, Y=a+((b−a)/(1+(c/X)^d)). (Y=inhibition achieved for a particular dose; X=the dose in nM; a=minimum y or zero % inhibition; b=maximum y or 100% inhibition; c=is the IC50; d=is the slope). The result was rounded to one significant figure.

[2] = molecular target: metalloelastase (MMP12) (Homo sapiens, UniProt P39900); assay: MMP12 enzyme inhibition assay (fluorogenic peptide substrate McaPLGLDpaAR); assay type: biochemical; details: protocol as for MMP9 assay
Sequence of metalloelastase (MMP12) (P39900 106-470): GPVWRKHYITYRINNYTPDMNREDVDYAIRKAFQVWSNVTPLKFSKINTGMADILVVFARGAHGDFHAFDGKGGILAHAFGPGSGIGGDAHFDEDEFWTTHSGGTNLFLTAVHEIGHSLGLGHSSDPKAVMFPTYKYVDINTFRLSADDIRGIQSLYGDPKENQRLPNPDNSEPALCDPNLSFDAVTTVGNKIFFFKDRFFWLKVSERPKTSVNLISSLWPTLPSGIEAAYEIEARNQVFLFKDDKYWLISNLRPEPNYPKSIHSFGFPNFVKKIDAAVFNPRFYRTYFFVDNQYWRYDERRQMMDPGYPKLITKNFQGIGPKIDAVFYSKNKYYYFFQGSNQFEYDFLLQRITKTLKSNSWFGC
Experimental: as §2, §3, §4, §5
as §1, with “metalloelastase (MMP12)” for “92 kDa gelatinase (MMP9)”, “263-266). The protocol for this assay was as described for the MMP9 assay above.” for “263-266).”

[3] = molecular target: T1, collagenase (MMP1) (Homo sapiens, UniProt P03956); assay: MMP1 enzyme inhibition assay (fluorogenic peptide substrate McaPLGLDpaAR); assay type: biochemical; details: protocol as for MMP9 assay
T1 sequence (P03956 100-469): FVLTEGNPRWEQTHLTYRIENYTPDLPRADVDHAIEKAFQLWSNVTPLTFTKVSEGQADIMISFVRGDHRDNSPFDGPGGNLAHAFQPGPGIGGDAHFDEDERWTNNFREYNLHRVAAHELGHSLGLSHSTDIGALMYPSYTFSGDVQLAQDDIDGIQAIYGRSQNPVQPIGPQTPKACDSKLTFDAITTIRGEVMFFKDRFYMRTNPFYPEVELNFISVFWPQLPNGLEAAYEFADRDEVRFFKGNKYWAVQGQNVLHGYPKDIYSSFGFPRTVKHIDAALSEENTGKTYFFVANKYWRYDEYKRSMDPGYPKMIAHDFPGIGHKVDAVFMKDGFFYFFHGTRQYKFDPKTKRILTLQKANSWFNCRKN
Experimental: as §2, §3, §4, §5
as §1, with “• Compounds” for “Compounds”, “collagenase (MMP1)” for “92 kDa gelatinase (MMP9)”, “263-266). The protocol for this assay was as described for the MMP9 assay above.” for “263-266).”

[4] = test system: IL2-induced lymphocyte recruitment; assay: IL2-induced peritoneal recruitment of lymphocytes; assay type: in vivo, C3H/HEN mice; details: mice, Subcutaneous route, 15 min prior to IL2, cells counted 24 hours after IL2
Experimental: Administration of IL2 intraperitoneally causes migration of lymphocytes into the intraperitoneal cavity. This is a model for the cellular migration that occurs during inflammation.
C3H/HEN mice (Elevage Janvier, France) were intraperitoneally injected with IL2 (Serono Pharmaceutical Research Institute, 20 μg/kg, in saline). Compounds of the invention were suspended in 0.5% carboxymethylcellulose (CMC)/0.25% tween-20 and were administered by sc or po route (10 ml/kg) 15 min prior to administration of IL2.
Twenty-four hours after administration of IL2, peritoneal white blood cells were collected by 3 successive lavages of the peritoneal cavity with 5 ml phosphate buffered saline (PBS)-1 mM EDTA (+4° C.). The suspension was centrifuged (1700 g×10 min at +4° C.). The resulting pellet was suspended in 1 ml PBS-1 mM EDTA.
Lymphocytes were identified and counted using a Beckman/Coulter counter.
The animals were divided into 5 groups (6 mice each group):
Group 1: (baseline) received 0.5% CMC/0.25% tween-20 (vehicle of compound of the invention) and saline (vehicle of IL2); Group 2: (control IL2) received 0.5% CMC/0.25% tween-20 and injection of IL2; Group 3: Experimental group (Compound of the invention Dose 1) received a compound of the invention and injection of IL2; Group 4: Experimental group (Compound of the invention Dose 2) received a compound of the invention and injection of IL2; Group 5: Experimental group (Compound of the invention Dose 3) received a compound of the invention and injection of IL2; Group 6: Reference group received reference compound dexamethasone and injection of IL2
Inhibition of lymphocyte recruitment was calculated as follows:
Where Ly 1=Number of lymphocytes in group 1 (E3/μl), Ly 2=Number of lymphocytes in group 2 (E3/μl), Ly X=Number of lymphocytes in group X (3-5) (E3/μl)
The dose of compound of the invention required to inhibit lymphocyte recruitment by 50% (ID50) was calculated using a curve-fitting routine.

Sequence of 92 kDa gelatinase (MMP9) (P14780 107-707 limits assumed): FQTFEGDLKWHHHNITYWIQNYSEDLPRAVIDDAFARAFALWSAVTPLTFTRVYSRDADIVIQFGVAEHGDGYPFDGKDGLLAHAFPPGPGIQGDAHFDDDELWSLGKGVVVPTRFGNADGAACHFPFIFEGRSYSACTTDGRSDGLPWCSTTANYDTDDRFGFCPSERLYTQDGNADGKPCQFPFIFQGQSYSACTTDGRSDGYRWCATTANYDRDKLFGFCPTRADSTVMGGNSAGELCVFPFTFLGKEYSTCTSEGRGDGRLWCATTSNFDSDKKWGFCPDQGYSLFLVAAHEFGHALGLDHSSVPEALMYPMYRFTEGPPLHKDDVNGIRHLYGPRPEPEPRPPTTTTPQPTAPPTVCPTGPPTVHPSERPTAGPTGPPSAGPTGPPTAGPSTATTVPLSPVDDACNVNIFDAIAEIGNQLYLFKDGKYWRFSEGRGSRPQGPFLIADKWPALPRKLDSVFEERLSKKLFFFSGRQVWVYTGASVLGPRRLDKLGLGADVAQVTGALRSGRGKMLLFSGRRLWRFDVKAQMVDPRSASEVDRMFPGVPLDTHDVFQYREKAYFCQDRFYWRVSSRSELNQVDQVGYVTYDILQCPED

| Compound | IC50 [1] | IC50 [2] | IC50 [3] | ID50 for inhibition of IL2-induced peritoneal recruitment of lymphocytes [4] |
| --- | --- | --- | --- | --- |
| CC(C)C[C@H](CC(=O)NO)C(=O)N[C@H](c1nc(-c2ccccc2)no1)C(C)(C)C [Example 24, 3R-[2,2-Dimethyl-1S-(3-phenyl-[1,2,4]oxadiazol-5-yl)-propylcarbamoyl]-5-methyl-hexanohydroxamic Acid] | 1000 to 10000 nM | < 100 nM | 1000 to 10000 nM |  |
| CC(C)C[C@@H](C(=O)N[C@H](c1nc(-c2ccccc2)no1)C(C)(C)C)[C@H](O)C(=O)NO [Example 2, 3R-[2,2-Dimethyl-1S-(3-phenyl-[1,2,4]oxadiazol-5-yl)-propylcarbamoyl]-2S-hydroxy-5-methyl-hexanohydroxamic Acid] | 100 to 1000 nM | < 100 nM | 100 to 1000 nM |  |
| C=CC[C@H](C(=O)NO)[C@@H](CC(C)C)C(=O)N[C@H](c1nc(C)no1)C(C)(C)C [Example 23, 2S-Allyl-3R-[2,2-dimethyl-I S-(3-methyl-[1,2,4]oxadiazol-5-yl)-propylcarbamoyl]-5-methyl-hexanohydroxamic Acid] | < 100 nM | < 100 nM | 100 to 1000 nM |  |
| CC(C)(C)[C@H](NC(=O)[C@H](CCCc1cc(C(F)(F)F)cc(C(F)(F)F)c1)[C@H](O)C(=O)NO)c1noc(-c2cccs2)n1 [Example 33, 2R-[3-(3,5-Bis-trifluoromethyl-phenyl)-propyl]-N1-[2,2-dimethyl-1S-(5-thiophen-2-yl-[1,2,4]oxadiazol-3-yl)-propyl]-3S, N4-dihydroxy-succinamide] | > 10000 nM | 100 to 1000 nM | > 10000 nM |  |
| CC(C)C[C@@H](C(=O)N[C@H](c1noc(CC2CCCC2)n1)C(C)(C)C)[C@H](O)C(=O)NO [Example 6, 2S-Hydroxy-3R-[1S-(5-cyclopentylmethyl-[1,2,4]oxadiazol-3-yl)-2,2-dimethyl-propylcarbamoyl]-5-methyl Hexanohydroxamic Acid] | 1000 to 10000 nM | < 100 nM | 100 to 1000 nM |  |
| CC(C)C[C@@H](C(=O)N[C@H](c1noc(C2CCCC2)n1)C(C)(C)C)[C@H](O)C(=O)NO [Example 9, 2S-Hydroxy-3R-[1S-(5-cyclopentyl-[1,2,4]oxadiazol-3-yl)-2,2-dimethyl-propylcarbamoyl]-5-methyl Hexanohydroxamic Acid] | 1000 to 10000 nM | < 100 nM | 100 to 1000 nM |  |
| Cc1nc([C@@H](NC(=O)[C@H](CC(C)C)[C@H](O)C(=O)NO)C(C)(C)C)no1 [Example 17, 2S-Hydroxy-3R-[1S-(5-methyl-[1,2,4]oxadiazol-3-yl)-2,2-dimethyl-propylcarbamoyl]-5-methyl Hexanohydroxamic Acid] | 1000 to 10000 nM | < 100 nM | 100 to 1000 nM |  |
| CC(C)C[C@@H](C(=O)N[C@H](c1noc(Cc2cccs2)n1)C(C)(C)C)[C@H](O)C(=O)NO [Example 7, 2S-Hydroxy-3R-[1S-(5-thiopen-2-ylmethyl-[1,2,4]oxadiazol-3-yl)-2,2-dimethyl-propylcarbamoyl]-5-methyl Hexanohydroxamic Acid] | 1000 to 10000 nM | 100 to 1000 nM | 1000 to 10000 nM |  |
| C[C@@H]1C[C@H]2[C@@H]3CCC4=CC(=O)C=C[C@]4(C)[C@@]3(F)[C@@H](O)C[C@]2(C)[C@@]1(O)C(=O)CO [dexamethasone, reference compound] |  |  |  | 0.05 mg/kg |
| CCOc1ccc(CCC[C@@H](C(=O)N[C@H](c2noc(-c3ccco3)n2)C(C)(C)C)[C@H](O)C(=O)NO)cc1 [Example 35, 2R-[3-(4-Ethoxy-phenyl)-propyl]-N1-[1S-(5-furan-2-yl-[1,2,4]oxadiazol-3-yl)-2,2-dimethyl-propyl]-3S,N4-dihydroxy-succinamide] | < 100 nM | < 100 nM | > 10000 nM |  |

Second part, led by results:

| IC50 [1] | IC50 [2] | IC50 [3] | Compound | ID50 for inhibition of IL2-induced peritoneal recruitment of lymphocytes [4] |
| --- | --- | --- | --- | --- |
| > 10000 nM | > 10000 nM | > 10000 nM | CC(C)(C)[C@H](NC(=O)[C@H](CCCc1cc(C(F)(F)F)cc(C(F)(F)F)c1)[C@H](O)C(=O)NO)c1noc(-c2ccco2)n1 [Example 34, 2R-[3-(3,5-Bis-trifluoromethyl-phenyl)-propyl]-N1-[1S-(5-furan-2-yl-[1,2,4]oxadiazol-3-yl)-2,2-dimethyl-propyl]-3S,N4-dihydroxy-succinamide] |  |
| 100 to 1000 nM | < 100 nM | 100 to 1000 nM | CC(C)C[C@@H](C(=O)N[C@H](c1noc(-c2ccccc2)n1)C(C)(C)C)[C@H](O)C(=O)NO [Example 1, 3R-[2,2-Dimethyl-1 S-(5-phenyl-[1,2,4]oxadiazol-3-yl)-propylcarbamoyl]-2S-hydroxy-5-methyl-Hexanohydroxamic Acid] |  |
| 100 to 1000 nM | < 100 nM | 100 to 1000 nM | CC(C)C[C@@H](C(=O)N[C@H](c1noc(-c2ccco2)n1)C(C)(C)C)[C@H](O)C(=O)NO [Example 5, 2S-Hydroxy-3R-[1S-(5-furan-2-yl-[1,2,4]oxadiazol-3-yl)-2,2-dimethyl-propylcarbamoyl]-5-methyl Hexanohydroxamic Acid] | 1 mg/kg |
| < 100 nM | < 100 nM | 100 to 1000 nM | C=CC[C@H](C(=O)NO)[C@@H](CC(C)C)C(=O)N[C@@H](Cc1ccccc1)c1nc(C(C)C)no1 [Example 21, 2S-Allyl-5-methyl-3R-[2-phenyl-1S-(3-isopropyl-[1,2,4]oxadiazol-5-yl)-ethylcarbamoyl]-hexanohydroxamic Acid] |  |
| > 10000 nM | 1000 to 10000 nM | > 10000 nM | CC(C)C[C@@H](C(=O)N[C@H](c1noc(-c2ccco2)n1)C(C)(C)C)[C@H](O)C(=O)O [Example 30, 3R-[1S-(5-Furan-2-yl-[1,2,4]oxadiazol-3-yl)-2,2-dimethyl-propylcarbamoyl]-2S-hydroxy-5-methyl-hexanoic Acid] |  |
